“Also recorded” adds a separate entry of the source.
What was measured:
[1] = test system: splenic CD8+ cDC; assay: In vitro stimulation of sorted splenic CD8+ cDCs, cytokines in supernatant (IFN-λ ELISA, IL-12p70 FlowCytomix); type: cell-based, mouse; conditions: 5×10^5/ml, IL-3 and GM-CSF, supernatants after 18 h
Source text: DC subsets were isolated from pooled mouse spleens as described (Vremec et al., 2007). Briefly, spleens were chopped, digested with collagenase (Worthington Biochemical) and DNase (Roche) at room temperature, and treated with EDTA. Low-density cells were enriched by density centrifugation; non-DC lineage cells were coated with mAbs (anti-CD3, KT3-1.1; anti-Thy-1, T24/31.7; anti Gr-1, 1A8; anti-CD19, ID3; anti-erythrocytes, TER119 and anti-NK cells, DX5) and depleted using anti-rat Ig magnetic beads (Qiagen). Dead cells were excluded by propidium iodide staining. cDC populations were sorted based on the expression of CD11c, CD45RA, CD4, CD8a and CD172a and pDCs were purified based on CD11c, CD45RA, and CD172a (all BD Biosciences) expression. Cell sorting was performed on a FACS Aria instrument (BD Biosciences).
(§1) Cells were stimulated in vitro with single TLR agonists or combinations thereof containing 10 μg/ml Pam3Cys (InvivoGen), 100 μg/ml poly IC (Axxora), 10 μg/ml LPS (E. coli; Sigma-Aldrich or Axxora), 10 μg/ml R848 (Axxora), 1 μM CpG-1668 or CpG-2216 (TIB-Molbiol), 1 μg/ml profilin of toxoplasma (Axxora). The recombinant cytokines mouse-IL-3, mouse-IL-4, rat-IFN-γ (PeproTech) and mouse-GM-CSF (Tebu-Bio) (10 ng/ml each) were added as indicated. The addition of IL-3 and GM-CSF was based on previous observations that GM-CSF promoted the production of IL-12p70 and that the combination of IL-3 and GM-CSF increased virus induced IFN-λ production in pDCs and cDCs (Hochrein et al., 2000; Hochrein et al., 2004). As source of a parapoxvirus Zylexis, which is used for veterinary purposes was purchased from a pharmacy. HSV-1, in replication deficient form known as disc HSV-1 (HSV-1d) was used as described (Hochrein et al., 2004). IFN-λ in supernatants was analyzed by ELISA and IL-12p70 was determined by FlowCytomix bead assay (Bender Medsystems) according to manufacturer's protocol.

[2] = test system: FLDC-derived eCD8+ cDCs; assay: In vitro stimulation of sorted FLDC-derived eCD8+ cDCs, IFN-λ ELISA; type: cell-based, mouse
Procedure: FL bone marrow culture derived dendritic cells (FLDC) were prepared as described (Hochrein et al., 2004). pDCs and eCD8+ and eCD8^− cDC subsets were sorted based on the expression of CD11c, CD45R, CD11b, CD24, and CD172a or CD103 (all BD Biosciences).
as §1

[3] = test system: CD8α+ cDCs; assay: In vitro stimulation of FL expanded ex-vivo isolated splenic CD8α+ cDCs, IFN-λ; type: cell-based, mouse; conditions: 5×10^5/ml, IL-3+GM-CSF+IL-4+IFN-γ, 100 μg/ml, 18 h
Procedure: (§2) FIG. 13 depicts that in vivo FL expanded CD8α+cDCs and eCD8α cDCs selectively produce IFN-λ to poly AU in vitro. Highly purified FL expanded ex-vivo isolated splenic 5×10^5/ml were stimulated in the presence of IL-3+GM-CSF+IL-4+IFN-γ with either poly IC (100 μg/ml) or poly AU (100 μg/ml). After 18 h supernatants were analyzed for IFN-λ.
(§3) To see if the IFN-λ production to poly AU seen in vivo would correspond with the same cells as in response to poly IC we enhanced the amount of DC in mice with FL treatment and sorted CD8α+ cDCs, eCD8α cDCs and CD11b+/CD172a+cDCs. Those cells were stimulated with poly IC or poly AU.

[4] = test system: eCD8α cDCs; assay: In vitro stimulation of FL expanded ex-vivo isolated splenic eCD8α cDCs, IFN-λ; type: cell-based, mouse; conditions: 5×10^5/ml, IL-3+GM-CSF+IL-4+IFN-γ, 100 μg/ml, 18 h
Procedure: as §2, §3

[5] = test system: splenocytes; assay: Spleen cell fractions separated after in vivo injection, cultured 18 h, IFN-λ in supernatant; set-up: species or system mouse; conditions: spleens 1.5-2 h after i.v. injection, magnetic bead separation, 18 h culture
Procedure: 1.5-2 h after i.v. injection of poly IC spleens were harvested and processed. Cell free supernatants were analyzed for IFN-λ after in vitro culture for 18 h. (A) 5×10^6 cells/ml total spleen cells or cells separated by density centrifugation into light density cells or heavy density cells. (B) total spleen cells 25×10^6 cells/ml of WT or CD11c-DTR-tg mice treated 2 days before with diphtheria toxin (DT). (C) Total spleen cells before separation or after magnetic bead separation into the denoted populations. The initial cell number of splenocytes added onto the column was 20×10^6. Without further counting each fraction was distributed into 2 wells with 200 μl medium/well. Bars represent the mean±SD of 2 independent experiments (A+C) or 1 experiment (B) using 2 mice per experiment.
Spleen cells 1.5 h after in vivo injection with DISC HSV-1 were separated with anti-CD45R and magnetic beads into positive and negative fractions. The CD45R negative fraction was further separated into cells positive or negative for CD8α. Separated cells were cultured in vitro for the next 18 h and cell-free supernatants were analyzed for IFN-λ.^˜ Bars represent the mean±SD of 2 independent experiments using one mouse per experiment.

With “Polyinosinic:polycytidylic acid [poly IC]” as the substance, how does the IFN-λ production [1] read?
The IFN-λ production was “major producers; also recorded: induced IFN-λ”.

And the IL-12p70 production [1]?
Its IL-12p70 production is “not IL-12p70 production”.

And the IFN-λ production ([2]; WT eCD8+ cDCs, 18 h)?
Its IFN-λ production is “produced IFN-λ”.

What about the “IFN-λ production, dependence on Cardif, MyD88, TLR3” value ([2]; eCD8+ cDCs generated from Cardif-, MyD88- or TLR3-KO mice) of the same substance?
Its value is “involvement of TLR3 but not Cardif or MyD88”.

And the IFN-λ production [3]?
Its IFN-λ production is “able to produce IFN-λ”.

And the IFN-λ production [4]?
Its IFN-λ production is “able to produce IFN-λ”.

And the “splenocyte fraction with which IFN-λ production separates” value [5]?
The value was “separates with CD45R−/CD11c+/CD8α+ splenocytes”.

From patent publication US9090897B2, “Production of IFN-lambda by conventional dendritic cells” (Bavarian Nordic A/S, priority 2009, dated 2015)
